Legend:
caspase-3 = test: Fluorometric caspase-3 activity assay in CEM leukemic T cells; assay type: cell-based, human; conditions: cisplatin 2 µg/ml alone, Fig. 1c
Experimental: • (a) Human epidermoid lung cancer cells (P693) were injected into nude mice. At a tumour volume of 500 mm^3 weekly treatment with cisplatin (5mg/kg/week) was started. Cisplatin was injected intraperitoneally in the absence (CIS) or presence (DEX/CIS) of DEX which was added to the drinking water (0.28 mg/L) for the duration of the experiment. […] As controls, tumor growth of xenografts from mice which received neither cisplatin nor DEX (CO) or from mice which received DEX only (DEX) was determined. The tumour volume in each animal was measured at weekly intervals for a period of 5 weeks. Data are presented as the means +/- SD of 6 to 8 animals. • (b) The human cervical carcinoma cell lines HeLa and P5 were γ-irradiated (10 Gy) or treated with cisplatin (2 µg/ml) in the absence (white bars) or presence (black bars) of DEX (1 µM). The percentage of apoptosis was measured in untreated (CO) and stimulated cells by annexin-staining and FACS-analysis at the time points indicated. (c) P5, P693 and human leukemic T cells (CEM) cells were treated with cisplatin (2 µg/ml) in the absence or presence of DEX as indicated. 24 and 48 h following treatment cells were lysed and caspase-3 activity was determined by a fluorescent caspase-3 assay and spectroscopy.

caspase-9 = test: RT-PCR for caspase-9 mRNA expression in P5 cells; assay type: cell-based, human; conditions: cisplatin 2 µg/ml, 6 and 24 h, Fig. 4a
Experimental: P5 cells either untreated (CO) or stimulated with cisplatin (CIS, 2 µg/ml) were incubated in the absence or presence of DEX (1 µM). • (a) 6 and 24 h later RNA was extracted and assayed by RT-PCR for expression of caspase-9. Expression of the GAPDH gene served as control for equal conditions. • (b) 24 h after stimulation expression of caspase-9 proteins was examined by immunofluorescence staining using a rabbit polyclonal caspase-9 antibody and a FITC-coupled secondary antibody. Staining with the secondary antibody alone served as control for unspecific binding. • (c) 48 and 72 h after treatment whole cell proteins were extracted and analysed for expression of caspase-9 and caspase-3. The protein sizes in kDa are indicated on the right. […]
• (A) Cell culture. […] The mice were given 0.28 mg/L DEX in drinking water, and the amount of water consumed was monitored. […] The tumour volumes were measured using callipers, and calculated using, as an approximation, the formula for volume of a hemi-ellipsoid: π(width^2 x length)/6. […] Early apoptotic changes were identified by staining of cells with fluoresceinthiocyanate (FITC)-conjugated annexin V and propidium iodide (Becton Dickinson, Heidelberg, Germany) and analysed by flow cytometry (FACScan, Becton Dickinson) as described (Herr et al., EMBO J. 16 (1997), 6200-6208) • (E) Immunohistochemistry. […]

## N.N.[Cl][Pt][Cl] [cisplatin]
caspase-3
  caspase-3 activity: responded earlier at 24 h with increased activity at 48 h
caspase-9
  caspase-9 mRNA expression: strongly enhanced

— patent EP1283052A1, “Pharmaceutical composition containing caspase-8 and /or caspase-9 useful for overcoming glucocorticoid- and cancer therapy-induced apoptosis of tumours” (Deutsches Krebsforschungszentrum Stiftung des öffentlichen …, priority 2001, dated 2003)
